Values of other authors as cited in patent publication US20040208833A1, “Novel fluticasone formulations” (Elan Pharma International Ltd., priority 2003, published 2004).

Key:
[1] = not given; remark: listed apart in the source
[2] = oral dosing of radiolabeled drug

For `CCC(=O)O[C@]1(C(=O)SCF)[C@H](C)C[C@H]2[C@@H]3C[C@H](F)C4=CC(=O)C=C[C@]4(C)[C@@]3(F)[C@@H](O)C[C@@]21C` [Fluticasone propionate, S-fluoromethyl-6α,9-difluoro-11β-hydroxy-16α-methyl-3-oxoandrosta-1,4-diene-17β-carbothioate, 17-propionate], the “solubility in 95% ethanol” value (95% ethanol) is listed as “slightly soluble”, the “solubility in dimethyl sulfoxide” value (dimethyl sulfoxide) is listed as “freely soluble” and the solubility in dimethylformamide (dimethylformamide) is listed as “freely soluble”. For the same molecule, the solubility in methanol (methanol) was “slightly soluble”, the solubility in water (water) was “practically insoluble” and the oral systemic bioavailability ([1]; oral dosing of labeled and unlabeled conventional fluticasone propionate) was < 1%. The absorption [1, 2] was “low”, the extraction from plasma [1, 2] was “highly extracted from plasma” and the oral bioavailability [1, 2] was “neglible”.
